Data as given in patent publication US20190225650A1, “PEPTIDOMIMETIC MACROCYCLES AND USE THEREOF IN REGULATING HIF1ALPHA” (AILERON THERAPEUTICS, INC., priority 2013, published 2019).
Bridge positions count the residues as written; N and C are the ends. Square brackets hold non-standard residues; d marks the D form. Peptide text beside a SMILES is read from it. R8 = C=CCCCCCC[C@@](C)(N)C(=O)O; S5 = C=CCCC[C@](C)(N)C(=O)O; Nle = CCCC[C@H](N)C(=O)O

Molecular target: T1, flag-tagged HIF1α (AA 786-826) / His6-tagged p300 (AA 323-423) complex (Homo sapiens, UniProt Q09472)
T1 construct: His6-tagged p300 (AA 323-423); made in house; host or cells: E. coli (pETDuet vector)
Assay: HIF1α p300 displacement assay (TR FRET, +CHAPS)
Format: binding
Conditions: read-out: IC50 (nM) (HIF1α_p300 Displacement + CHAPS)
Description: The ability of peptides to displace HIF1α c-terminal trans-activation domain from p300-CH was measured by a TR FRET assay. A complex of flag-tagged HIF1α (AA 786-826) and His6-tagged p300 (AA 323-423) was co-expressed using pETDuet vector (EMDMillipore, Bellrica Mass.) and purified from E. coli in the presence of 0.1 mM ZnSO4. The complex was diluted to 300 nM final in complete assay media and competitor peptides were added. The complete assay media contained 150 mM NaCl (Sigma +S5150 or equivalent), 20 mM HEPES pH 7.4 (Boston Bioproducts, Ashland, Mass.; #BB-2076), 7.5 mM CHAPS (Thermo #28300 or equivalent), and 1 mM DTT. Protein and peptide were incubated at room temperature for 1 hour before the addition of anti-Flag-K and anti-6×HIS-D2 (CisBio, Bedford Mass.) HTRF reconstitution buffer (50 mM Phosphate pH 7, 0.8 Potassium Flouride, BSA 0.2%)^1 to a final concentration of 0.5 μM and 4 nM respectively. The reaction continued for an additional two hours at room temperature. The reaction was read on a TECAN F500 plate reader with settings recommended by CisBio. The ratio of donor to acceptor fluorescence was calculated. The resulting data was analyzed with Graphpad Prism 5.0. IC50 values were calculated for both proteins using the One Site Fit-LogIC50 equation and presented in the column “IC50 (nM) (HIF1α_p300 Displacement+CHAPS)” of Table 6. ^1 Cisbio USA, Bedford, Mass.; 61HISDLB (lot 007A), 61FG2KLB (024A), HTRF Buffer (62RB3RDF)

SMILES	IC50
CCCC[C@H](NC(=O)[C@H](CCC(=O)O)NC(=O)[C@@H](NC(=O)[C@@H](NC(=O)[C@H](CC(C)C)NC(=O)[C@]1(C)CCCC=CCCC[C@](C)(NC(=O)[C@H](CCC(=O)O)NC(=O)[C@H](CC(=O)O)NC(=O)[C@@H](NC(=O)[C@H](Cc2ccccc2)NC(=O)[C@H](CCCCN)NC(C)=O)[C@@H](C)CC)C(=O)N[C@@H](C(C)C)C(=O)N[C@@H](CC(C)C)C(=O)N[C@@H](CCCC)C(=O)N1)C(C)C)[C@@H](C)CC)C(=O)N[C@@H](C)C(=O)N[C@@H](CC(C)C)C(=O)N[C@@H](CCCCN)C(N)=O [SP-136] (Ac-KFIDE[S5]VL[Nle][S5]LVIE[Nle]ALK-NH2; staple 6-10)	> 700 nM
CCCC[C@H](NC(=O)[C@H](CC(C)C)NC(=O)[C@@H](NC(=O)[C@H](CCC(=O)O)NC(=O)[C@H](CCC(=O)O)NC(=O)[C@H](CC(=O)O)NC(=O)[C@@H](NC(=O)[C@H](CC(N)=O)NC(=O)[C@@H](NC(=O)[C@H](CCC(N)=O)NC(=O)[C@H](CC(=O)O)NC(=O)[C@H](CC(C)C)NC(=O)[C@H](C)NC(=O)[C@H](CCCNC(=N)N)NC(=O)[C@]1(C)CCCC=CCCC[C@](C)(NC(=O)[C@H](CCC(N)=O)NC(=O)[C@H](CC(C)C)NC(=O)[C@H](CC(C)C)NC(C)=O)C(=O)N[C@@H](CCC(=O)O)C(=O)N[C@@H](CCC(=O)O)C(=O)N[C@@H](CC(C)C)C(=O)N1)C(C)C)[C@@H](C)CC)C(C)C)C(=O)N[C@@]1(C)CCCC=CCCC[C@@](C)(C(=O)N[C@@H](CCCC)C(=O)N[C@@H](C)C(=O)N[C@@H](CC(C)C)C(N)=O)NC(=O)[C@H]([C@@H](C)CC)NC(=O)[C@H](C(C)C)NC(=O)[C@H](CC(C)C)NC1=O [SP-370] (Ac-LLQ[S5]EEL[S5]RALDQVNIDEEVL[Nle][S5]LVI[S5][Nle]AL-NH2; staple 4-8, 23-27)	> 700 nM
CCCC[C@H](NC(=O)[C@H](CCC(=O)O)NC(=O)[C@]1(C)CCCC=CCCCCCC[C@@](C)(NC(=O)[C@H](CCC(=O)O)NC(=O)[C@H](CC(=O)O)NC(=O)[C@@H](NC(=O)[C@H](Cc2ccccc2)NC(C)=O)[C@@H](C)CC)C(=O)N[C@@H](C(C)C)C(=O)N[C@@H](CC(C)C)C(=O)N[C@@H](CCSC)C(=O)N[C@@H](CO)C(=O)N[C@@H](CC(C)C)C(=O)N[C@@H](C(C)C)C(=O)N1)C(=O)NCC(N)=O [SP-186] (Ac-FIDE[R8]VLMSLV[S5]E[Nle]G-NH2; staple 5-12)	> 700 nM
CCCC[C@H](NC(=O)[C@H](CCC(=O)O)NC(=O)[C@@H](NC(=O)[C@]1(C)CCCC=CCCC[C@](C)(NC(=O)[C@@H](NC(=O)[C@H](CCC(=O)O)NC(=O)[C@H](CCC(=O)O)NC(=O)[C@H](CC(=O)O)NC(=O)[C@@H](NC(=O)[C@H](CC(N)=O)NC(=O)[C@@H](NC(=O)[C@H](CCC(N)=O)NC(=O)[C@H](CC(=O)O)NC(=O)[C@H](CC(C)C)NC(=O)[C@H](C)NC(=O)[C@H](CCCNC(=N)N)NC(=O)[C@]2(C)CCCC=CCCC[C@](C)(NC(=O)[C@H](CCC(N)=O)NC(=O)[C@H](CC(C)C)NC(=O)[C@H](CC(C)C)NC(C)=O)C(=O)N[C@@H](CCC(=O)O)C(=O)N[C@@H](CCC(=O)O)C(=O)N[C@@H](CC(C)C)C(=O)N2)C(C)C)[C@@H](C)CC)C(C)C)C(=O)N[C@@H](CCCC)C(=O)N[C@@H](CO)C(=O)N[C@@H](CC(C)C)C(=O)N1)[C@@H](C)CC)C(=O)NCC(N)=O [SP-302] (Ac-LLQ[S5]EEL[S5]RALDQVNIDEEV[S5][Nle]SL[S5]IE[Nle]G-NH2; staple 4-8, 21-25)	> 700 nM
CCCC[C@@H]1NC(=O)[C@](C)(NC(=O)[C@@H](NC(=O)[C@H](CCC(=O)O)NC(=O)[C@H](CCC(=O)O)NC(=O)[C@H](CC(=O)O)NC(=O)[C@@H](NC(=O)[C@H](CC(N)=O)NC(=O)[C@@H](NC(=O)[C@]2(C)CCCC=CCCCCCC[C@@](C)(NC(=O)[C@H](CCC(=O)O)NC(=O)CNC(=O)[C@H](CCC(N)=O)NC(=O)[C@H](CC(C)C)NC(=O)[C@H](CC(C)C)NC(C)=O)C(=O)N[C@@H](CC(C)C)C(=O)N[C@@H](CC(C)C)C(=O)N[C@@H](CCCNC(=N)N)C(=O)N[C@@H](C)C(=O)N[C@@H](CC(C)C)C(=O)N[C@@H](CC(=O)O)C(=O)N2)C(C)C)[C@@H](C)CC)C(C)C)CCCCCCC=CCCC[C@@](C)(C(=O)NCC(N)=O)NC(=O)[C@H](CCC(=O)O)NC(=O)[C@H]([C@@H](C)CC)NC(=O)[C@H](C(C)C)NC(=O)[C@H](CC(C)C)NC(=O)[C@H](CO)NC1=O [SP-317] (Ac-LLQGE[R8]LLRALD[S5]VNIDEEV[R8][Nle]SLVIE[S5]G-NH2; staple 6-13, 21-28)	> 700 nM
CC[C@H](C)[C@H](NC(=O)[C@H](Cc1ccccc1)NC(C)=O)C(=O)N[C@@H](CC(=O)O)C(=O)N[C@@H](CCC(=O)O)C(=O)N[C@]1(C)CCCCCCC=CCCC[C@@](C)(C(=O)N[C@@H](CCC(=O)O)C(=O)N[C@@H](CCSC)C(=O)NCC(=O)N[C@@H](CC(C)C)C(=O)N[C@@H](CC(=O)O)C(=O)N[C@@H](CCCNC(=N)N)C(N)=O)NC(=O)[C@H](C(C)C)NC(=O)[C@H](CC(C)C)NC(=O)[C@H](CO)NC(=O)[C@H](CCSC)NC(=O)[C@H](CC(C)C)NC(=O)[C@H](C(C)C)NC1=O [SP-189] (Ac-FIDE[R8]VLMSLV[S5]EMGLDR-NH2; staple 5-12)	> 700 nM
CC[C@H](C)[C@H](NC(=O)[C@H](Cc1ccccc1)NC(C)=O)C(=O)N[C@@H](CC(=O)O)C(=O)N[C@@H](CCC(=O)O)C(=O)N[C@]1(C)CCCCCCC=CCCC[C@@](C)(C(=O)N[C@@H](CCC(=O)O)C(=O)N[C@@H](CCSC)C(=O)N[C@@H](C)C(=O)N[C@@H](C)C(N)=O)NC(=O)[C@H](C(C)C)NC(=O)[C@H](CC(C)C)NC(=O)[C@H](CO)NC(=O)[C@H](CCSC)NC(=O)[C@H](CC(C)C)NC(=O)[C@H](C(C)C)NC1=O [SP-178] (Ac-FIDE[R8]VLMSLV[S5]EMAA-NH2; staple 5-12)	> 700 nM
CCCC[C@H](NC(=O)[C@H](CCC(=O)O)NC(=O)[C@@H](NC(=O)[C@@H](NC(=O)[C@H](CC(C)C)NC(=O)[C@H](CO)NC(=O)[C@H](CCCC)NC(=O)[C@H](CC(C)C)NC(=O)[C@@H](NC(=O)[C@H](CCC(=O)O)NC(=O)[C@H](CCC(=O)O)NC(=O)[C@H](CC(=O)O)NC(=O)[C@@H](NC(=O)[C@H](CC(N)=O)NC(=O)[C@@H](NC(=O)[C@H](CCC(N)=O)NC(=O)[C@H](CC(=O)O)NC(=O)[C@H](CC(C)C)NC(=O)[C@H](C)NC(=O)[C@H](CCCNC(=N)N)NC(=O)[C@H](CC(C)C)NC(=O)[C@H](CC(C)C)NC(=O)[C@H](CCC(=O)O)NC(=O)[C@H](CCC(=O)O)NC(=O)CNC(=O)[C@H](CCC(N)=O)NC(=O)[C@H](CC(C)C)NC(=O)[C@H](CC(C)C)NC(C)=O)C(C)C)[C@@H](C)CC)C(C)C)C(C)C)[C@@H](C)CC)C(N)=O [SP-333] (Ac-LLQGEELLRALDQVNIDEEVL[Nle]SLVIE[Nle]-NH2)	400 to 700 nM

The next lines start with the values.

IC50	SMILES
> 700 nM	CCCC[C@H](NC(=O)[C@H](CCC(=O)O)NC(=O)[C@@H](NC(=O)[C@@H](NC(=O)[C@H](CC(C)C)NC(=O)[C@]1(C)CCCC=CCCC[C@](C)(NC(=O)[C@H](CCC(=O)O)NC(=O)[C@H](CC(=O)O)NC(=O)[C@@H](NC(=O)[C@H](Cc2ccccc2)NC(=O)[C@H](CCCCN)NC(=O)[C@H](CCCCN)NC(C)=O)[C@@H](C)CC)C(=O)N[C@@H](C(C)C)C(=O)N[C@@H](CC(C)C)C(=O)N[C@@H](CCCC)C(=O)N1)C(C)C)[C@@H](C)CC)C(=O)N[C@@H](C)C(=O)N[C@@H](CC(C)C)C(=O)N[C@@H](CCCCN)C(=O)N[C@@H](CCCCN)C(N)=O [SP-137] (Ac-KKFIDE[S5]VL[Nle][S5]LVIE[Nle]ALKK-NH2; staple 7-11)
> 700 nM	CCCC[C@@H]1NC(=O)[C@H](CC(C)C)NC(=O)[C@H](C(C)C)NC(=O)[C@@](C)(NC(=O)[C@H](CCC(=O)O)NC(=O)[C@H](CC(=O)O)NC(=O)[C@@H](NC(=O)[C@H](Cc2ccccc2)NC(C)=O)[C@@H](C)CC)CCCC=CCCCC2(CCCC=CCCC[C@](C)(C(=O)N[C@@H](CCCC)C(=O)N[C@@H](C)C(=O)N[C@@H](CC(C)C)C(N)=O)NC(=O)[C@H]([C@@H](C)CC)NC(=O)[C@H](C(C)C)NC(=O)[C@H](CC(C)C)NC2=O)NC1=O (stereo partly drawn) [SP-204]
≤ 200 nM	CCCC[C@H](NC(=O)[C@H](Cc1ccccc1)NC(=O)[C@@H](NC(=O)[C@H](CCC(=O)O)NC(=O)[C@H](CCC(=O)O)NC(=O)[C@H](CC(=O)O)NC(=O)[C@@H](NC(=O)[C@H](Cc1ccccc1)NC(C)=O)[C@@H](C)CC)C(C)C)C(=O)N[C@@]1(C)CCCC=CCCC[C@@](C)(C(=O)N[C@@H](CCCC)C(=O)N[C@@H](C)C(=O)N[C@@H](CC(C)C)C(=O)N[C@@H](CC(C)C)C(N)=O)NC(=O)[C@H]([C@@H](C)CC)NC(=O)[C@H](C(C)C)NC(=O)[C@H](CC(C)C)NC1=O [SP-242] (Ac-FIDEEVF[Nle][S5]LVI[S5][Nle]ALL-NH2; staple 9-13)
> 700 nM	CC[C@H](C)[C@H](NC(=O)[C@H](Cc1ccccc1)NC(C)=O)C(=O)N[C@@H](CC(=O)O)C(=O)N[C@@H](CCC(=O)O)C(=O)N[C@]1(C)CCCCCCC=CCCC[C@@](C)(C(=O)N[C@@H](CCC(=O)O)C(=O)N[C@@H](CCSC)C(=O)NCC(=O)N[C@@H](CC(C)C)C(=O)N[C@@H](CC(=O)O)C(N)=O)NC(=O)[C@H](C(C)C)NC(=O)[C@H](CC(C)C)NC(=O)[C@H](CO)NC(=O)[C@H](CCSC)NC(=O)[C@H](CC(C)C)NC(=O)[C@H](C(C)C)NC1=O [SP-188] (Ac-FIDE[R8]VLMSLV[S5]EMGLD-NH2; staple 5-12)
